Laboratory results as given in patent publication US7767817B2, “Water soluble boronic acid fluorescent reporter compounds and methods of use thereof” (priority 2003, dated 2010).
“And” between values parts separate entries of the source, which are not always exact repeats. Identical values can stand only once. Like-named read-outs stand apart in the source and are kept apart here.

Legend:
[1] = Fluorescence binding study with mannose; conditions: for Association constant (Ka) with mannose: 0.1 M phosphate buffer pH 7.4, 1:1 complex assumed
Procedure: (§1) For a typical sugar-BTBA fluorescent measurement, a 1.0×10^−5 M stock solution of BTBA in 0.10 M phosphate buffer at pH 7.4 was made as solution A. […] Solution B was titrated into solution A in order to make mixtures with a constant concentration of BTBA and a range of concentrations of the sugar. Each mixture was allowed to stand for at least 10 min, then 3.0 mL of the mixture was transferred into a cuvette for fluorescence measurement.
(§2) The association constants (Ka) were determined according to the method III in Valeur's publication (J. Phys. Chem. 1988, 92, 6233).

[2] = 11B NMR at different pH (pKa assignment); assay type: physicochemical; conditions: absence of sugar; 11B NMR in deuterated methanol-water (1:1); read-out: second pKa corresponding to boronic acid ionization
Description: (§3) Since the fluorescence intensity increase upon binding with a sugar seems to be a general phenomenon, the use of 5-QBA functions as a fluorescent probe for diols was investigated. The fluorescence pH profiles of both 5-QBA alone and 5-QBA in the presence of D-fructose (0.5 M) were investigated. […] In order to assign each pKa, the ^11B NMR spectra of 5-QBA and its ester in a mixed deuterated methanol-water (1:1) solvent at different pH were obtained. Methanol was used so that the concentration of 5-QBA can be increased to 57 mM so as to allow for a meaningful NMR determination within a reasonable period of time.
It should be noted that the addition of 50% methanol to water solution results in minimal changes of the solution pH. The boron signal of 5-QBA appeared at 30.0 ppm at both pH 2.0 and 7.0, consistent with the neutral trigonal boron. At an increased pH (7.5), two boron signals at 30.0 and 10.0 ppm were observed indicating a mixture of both the neutral and anionic species. […] At pH 12, a single peak at 5.7 ppm was found indicating the presence of only the anionic tetrahedral state. […] This pKa assignment is opposite to that of 8-QBA. For the fructose ester of 5-QBA, we observed the same chemical shifts (at about 10.5 ppm) at pH 6.0 and 11. […] Such a pKa-switching seems to correspond to the highest fluorescence intensity change at pH 5.8 (FIG. 13).

[3] = Fluorescence binding study with fructose; conditions: for Association constant (Ka) with fructose: 0.1 M phosphate buffer pH 7.4, 1:1 complex assumed; for fluorescence intensity change ΔI/I0: pH 7.4
Procedure: as §1, §2

[4] = Fluorescence binding study with arabinose; conditions: 0.1 M phosphate buffer pH 7.4
Procedure: For a typical sugar-BTBA fluorescent measurement, a 1.0×10^−5 M stock solution of BTBA in 0.10 M phosphate buffer at pH 7.4 was made as solution A. The sugar was added to a portion of solution A to make a 1.0×10^−5 M BTBA, 1.0×10^−3 M sugar solution as solution B. Solution B was titrated into solution A in order to make mixtures with a constant concentration of BTBA and a range of concentrations of the sugar. Each mixture was allowed to stand for at least 10 min, then 3.0 mL of the mixture was transferred into a cuvette for fluorescence measurement.
as §2

[5] = Fluorescence intensity pH profile (apparent pKa); assay type: physicochemical
Description: Since the fluorescence intensity increase upon binding with a sugar seems to be a general phenomenon, the fluorescence change mechanism of compound 5 at pH 7.4 was investigated. For this purpose, the fluorescence pH profiles of both compound 5 alone and compound 5 in the presence of fructose (0.5 M) were studied. The fluorescence intensity of 5 at 334 nm in the absence of sugars decreased upon changing the pH from 3 to 12 (FIG. 3). An apparent pKa of 7.0 was observed, which is assigned to the boronic acid moiety. […] It is well-known that the binding of a diol to boronic acid often lowers the pKa of the boron species) (Springsteen, G.; Wang, B. Tetrahedron 2002, 58, 5291-5300). Therefore, the pKa, which drops from 7.0 to 4.0, can also be reasonably assigned to boron. […] It seems that the fluorescence intensity change of compound 5 is also due to diol's perturbation as that of 8-quinolineboronic acid.
To examine the relationship between the fluorescence intensity changes and the boron ionization states, the pH profile of the fluorescence intensity in the absence and presence of fructose and glucose at a fixed concentration (50 mM) was also studied (FIG. 6). […] It is worth mentioning that the pKa of the protonated dimethyl amino group of 1 is […] the emission wavelength of 1 with the protonated dimethyl amino group at low pH is about 238 nm. Therefore, the fluorescence intensity of 1 at 445 nm was not affected by the protonated dimethyl amino group. The fluorescence intensity changes correspond to the boronic acid pKa (9.4) and therefore hybridization changes, which was responsible for the fluorescence intensity changes observed.
Since the fluorescence intensity increase upon binding with a sugar seems to be a general phenomenon, next the conditions under which optimal fluorescence intensity changes are observed upon addition of a sugar was investigated. For this purpose, the fluorescence pH profiles of both compound 6 alone and in the presence of fructose (0.5 M) were studied. The fluorescence intensity of 6 in the absence of sugars increased by 17-fold upon changing the pH from 3 to 12 (FIG. 10). […] Furthermore, one would expect the pKa values of the other two ionizable groups, the carboxylic acid and the quinolinium groups, to be less than 7. Therefore, assigning the pKa at 7.9 to the boronic acid moiety is the most reasonable option. […] It is well-known that the binding of a diol to boronic acid often lowers the pKa of the boron species. […] Upon addition of fructose, the pKa of the boron drops to about 5.2, which ensures that most of the boron species are in the anionic tetrahedral state at physiological pH.
as §3
To understand the structural features associated with the fluorescence intensity changes, we studied the pH profiles of the fluorescence intensity in the absence (FIG. 18) and presence of fructose and glucose at a fixed concentration (50 mM). […] The fluorescence intensity at 513 nm increased very quickly when pH increased from 1.78 to 7.04 (thin lines in FIG. 18), and then decreased in the pH range of 7.04-10.54 (thick lines in FIG. 18).

[6] = Fluorescence binding study with galactose; conditions: for Association constant (Ka) with galactose: 0.1 M phosphate buffer pH 7.4, 1:1 complex assumed; for fluorescence intensity change ΔI/I0: pH 7.4
Procedure: as §1, §2

[7] = Fluorescence binding study with glucose; conditions: for maximum fluorescence intensity increase: physiological pH; for Association constant (Ka) with glucose: 0.1 M phosphate buffer pH 7.4, 1:1 complex assumed; for fluorescence intensity change ΔI/I0: pH 7.4
Procedure: as §1, §2

[8] = in 12 M H2SO4; reference compound; cited from earlier work
[9] = Fluorescence quantum yield; assay type: physicochemical; conditions: 0.1 M phosphate buffer pH 7.4
Procedure: The effect of various carbohydrates on the fluorescent properties of compound 1 was determined in phosphate buffer at pH 7.4. The emission spectral change of 1 with fructose at different concentrations in 0.1 M aqueous phosphate buffer (pH 7.4) is shown in FIG. 4. A 41-fold emission intensity increase is observed in presence of 50 mM fructose. To the best of our knowledge, such a large emission intensity increase has never been reported for boronic acid-based saccharide sensors involving the ICT mechanism. The quantum yields of 1 in the absence (φF=0.010) and in the presence of 50 mM fructose (φF=0.42) in 0.1 M phosphate buffer (pH 7.4) were obtained using 8-quinoline boronic acid (φF=0.58 in 12 M H2SO4) as a reference compound.
For example, addition of fructose (50 mM) to the solution of 7 induced a 36-fold fluorescence intensity increase at 433 nm and a 0.55-fold fluorescence intensity decrease at 513 nm (FIG. 14). […] To the best of our knowledge, such large emission intensity changes at two wavelengths have never been reported for boronic acid-based saccharide sensors. The quantum yields (φF) of 7 were determined as 0.07 at 513 nm in 0.1 M phosphate buffer (pH 7.4) in the absence of a sugar and 0.23 at 433 nm in the presence of 50 mM of fructose, using 8-quinoline boronic acid (φF=0.58 in 12 M H2SO4) as a reference compound.

[10] = Fluorescence binding study with sorbitol
Procedure: as §1, §2

[11] = Fluorescence binding study with tagatose
Procedure: as §1, §2

[12] = literature value (Springsteen, Wang); cited from earlier work
[13] = literature value; cited from earlier work
[14] = literature value (Springsteen, Wang); cited from earlier work; remark: listed apart in the source
[15] = 0.1 M phosphate buffer, absence of sugar, 0.1 M phosphate buffer, read-out: apparent pKa assigned to the boronic acid moiety
[16] = 0.1 M phosphate buffer pH 7.4, 1:1 complex assumed

For `OB(O)c1cccc2ncccc12` [Compound 3], the “Association constant (Ka) with mannose” value [1] was 60 ± 2 M⁻¹, the pKa [2] was 7 to 12 and the “Association constant (Ka) with fructose” value [3] was 924 ± 88 M⁻¹. For the same molecule, the “binding constant with D-fructose, increase compared with 8-QBA” value ([3]; 5-QBA versus 8-QBA) was “more than 8 folds”, the “Binding constant with arabinose” value [4] was 121 ± 16 M⁻¹ and the pKa ([5]; phosphate buffer, absence of a sugar, read-out: pKa assigned to the quinolinium nitrogen) was 5.2. For the same molecule, the “Association constant (Ka) with galactose” value [6] was 90 ± 2 M⁻¹.

In the case of `O=C(O)c1cc(-c2ccc(B(O)O)cc2)nc2ccccc12` [Compound 6, 2-(4-phenylboronic acid)-quinoline-4-carboxylic acid], the “maximum fluorescence intensity increase” value ([7]; glucose 0.2 M) is reported as 6 fold, the emission intensity increase ([3]; 25 mM fructose, phosphate buffer pH 7.4) is reported as 25 fold and the pKa [5, 15] is reported as 7.9.

In the case of `OB(O)c1cccc2cccnc12` [Compound 4, 8-quinolineboronic acid], the “quantum yield φF” value [8] is listed as 0.58.

For `CN(C)c1ccc(B(O)O)c2ccccc12` [Compound 1, 4-(dimethylamino)-naphthalene boronic acid], the “quantum yield φF” value ([9]; absence of sugar) was 0.010, the “quantum yield φF” value ([9]; presence of 50 mM fructose) was 0.42 and the “Association constant (Ka) with mannose” value [1] was 48 ± 5 M⁻¹. For the same molecule, the “fluorescence intensity change ΔI/I0” value ([1]; mannose 0.025 M, pH 7.4, λex 270 nm, λem 400 nm) was 14 (0.025), the “Association constant (Ka) with sorbitol” value [10, 16] was 226 ± 5 M⁻¹ and the “fluorescence intensity change ΔI/I0” value ([10]; sorbitol 0.10 M, pH 7.4, λex 300 nm, λem 445 nm) was 42 (0.10). For the same molecule, the fluorescence intensity change ([10]; sorbitol at concentrations above 50 mM, physiological pH) was “more than 40 fold”, the “Association constant (Ka) with glucose” value [7] was 4.0 ± 0.1 M⁻¹ and 5.1 ± 1.0 M⁻¹ and the “fluorescence intensity change ΔI/I0” value ([7]; glucose 0.20 M, λex 270 nm, λem 400 nm) was 6 (0.20). The “fluorescence intensity change ΔI/I0” value ([7]; glucose 1.0 M, λex 300 nm, λem 445 nm) was 17 (1.0), the “maximum fluorescence intensity increase” value ([7]; glucose 1 M) was 17 fold and the emission intensity increase ([3]; 50 mM fructose, 0.1 M aqueous phosphate buffer pH 7.4) was 41 fold. For the same molecule, the “fluorescence intensity change ΔI/I0” value ([3]; fructose 0.025 M, λex 270 nm, λem 400 nm) was 25 (0.025), the “fluorescence intensity change ΔI/I0” value ([3]; fructose 0.05 M, λex 300 nm, λem 445 nm) was 41 (0.05) and the fluorescence intensity change ([3]; fructose at concentrations above 50 mM, physiological pH) was “more than 40 fold”. For the same molecule, the “Association constant (Ka) with tagatose” value [11, 16] was 116 ± 2 M⁻¹, the “fluorescence intensity change ΔI/I0” value ([11]; tagatose 0.02 M, pH 7.4, λex 300 nm, λem 445 nm) was 32 (0.02) and the pKa [5, 15] was 9.4. The “fluorescence intensity change ΔI/I0” value ([6]; galactose 0.025 M, λex 270 nm, λem 400 nm) was 16 (0.025) and the “fluorescence intensity change ΔI/I0” value ([6]; galactose 0.50 M, λex 300 nm, λem 445 nm) was 35 (0.50).

For `OB(O)c1ccccc1` [phenylboronic acid], the Ka for glucose [12] is listed as 5 M⁻¹, the Ka for fructose [13] is listed as 162 M⁻¹ and the Ka for galactose [14] is listed as 15 M⁻¹.

In the case of `OB(O)c1cc2ccccc2s1` [Compound 5, 2-Benzothienylboronic acid], the “Association constant (Ka) with mannose” value [1] is reported as 30 ± 1.4 M⁻¹, the “Association constant (Ka) with glucose” value [7] is reported as 27 M⁻¹ and 27 ± 4.9 M⁻¹ and the “Association constant (Ka) with fructose” value [3] is reported as 656 ± 28 M⁻¹. The pKa [5, 15] was 7 and the “Association constant (Ka) with galactose” value [6] was 19 M⁻¹ and 19 ± 0.7 M⁻¹.
